Data taken from patent EP0768085A1, “ANTIBACTERIAL AGENT” (DAIICHI PHARMACEUTICAL CO., LTD., priority 1994, dated 1996).
Values after ≈ are worked out from the molar mass of the structure shown.

Tests used:
Format in all cases: cell-based
[1] = system: Bordetella bronchiseptica (SM2-4); test: Antibacterial activity (IC), broth microplate as in Example 4 (Example 7, Table 42); details: 18 h
Method: (§1) A suitable amount of a sample was dissolved in dimethylsulfoxide (DMSO), and the resultant solution was diluted with the same amount of sterilized distilled water to prepare a bulk sample of 1,000 µg/ml. Mueller-Hinton broth (product of DIFCO) was dispensed into each well of 96-well microplate. Thereafter, the bulk specimen was added to the first well of a row, and successively diluted (10-fold each time) with sterilized distilled water. Separately, a bacterial cell suspension for the test (Staphylococcus aureus 209-P) which had been cultured in the above-mentioned broth overnight at 37°C was inoculated to each well so that the final inoculation amount of 10^6 CFU/ml was attained. The final concentrations of the samples were 100, 10, and 1 µg/ml.
(§2) The antibacterial action was evaluated by the inhibitory concentration (hereinafter abbreviated as IC) at which propagation of the bacteria cultured at 37°C for 18 hours was inhibited. Inhibition was determined by the turbidity of the medium. The expressions "IC≤100", "≤10", and "≤1" indicate that MIC-equivalent values obtained at the succesive […] dilution of the sample are 100-10 µg/ml, 10-1 µg/ml, and not more than 1 µg/ml, respectively. […] (In the subsequent Examples, the same rule applies correspondingly.) Table 39
In a manner similar to that described in Example 4, antibacterial activity of the invention compound was determined. The bacterium used for the test was Bordetella bronchiseptica (SM2-4).

[2] = system: methicillin-resistant Staphylococcus aureus (MRSA) isolated from humans; test: Antibacterial activity (IC), Mueller-Hinton agar containing the sample (Example 8, Table 43); details: Staphylococcus aureus, MRSA, 18 h
Method: as §2
(§3) A suitable amount of a sample was dissolved in dimethylsulfoxide (DMSO), after which the resulting solution was diluted with the same amount of sterilized distilled water to prepare a bulk sample of 1,000 µg/ml. Separately, a bacterial liquid for the test (methicillin-resistant Staphylococcus aureus (MRSA) isolated from humans) which had been cultured in Mueller-Hinton broth (product of DIFCO) was prepared and inoculated to a Mueller-Hinton agar (product of DIFCO) containing the sample so that the final inoculation amount of 10^6 CFU/ml was achieved. The final concentrations of the samples were 100, 10, and 1 µg/ml.
(§4) After culturing at 37°C for 18 hours, the antibacterial activity was evaluated in terms of IC in a manner similar to that described in Example 4.

[3] = system: Pasteurella multocida (Kobe-6); test: Antibacterial activity (IC), broth microplate as in Example 4 (Example 6, Table 41); details: 18 h, origin pig
Method: as §1, §2
In a manner similar to that described in Example 4, antibacterial activity of the invention compound was determined. The bacterium used for the test was Pasteurella Kobe-6 (origin: pig; Pasteurella multocida).

[4] = system: Staphylococcus aureus 209-P; test: Antibacterial activity (IC), Mueller-Hinton broth, 96-well microplate (Example 4, Table 39); details: 37°C, 18 hours
Method: as §1, §2

[5] = system: Staphylococcus aureus TI-1; test: Antibacterial activity (IC), broth microplate as in Example 4 (Example 5, Table 40); details: TI1, 18 h
Method: as §1, §2
In a manner similar to that described in Example 4, antibacterial activity of the invention compound was determined. The bacterium used for the test was Staphylococcus aureus TI-1.

[6] = system: Pasteurella multocida (Kobe-6); test: Antibacterial activity (IC), agar as in Example 8 (Example 17, Table 50); details: 18 h, origin pig
In short: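 Agar dilution on Mueller-Hinton agar with compound at 100, 10 and 1 µg/ml, inoculated at 10^6 CFU/ml with pig-origin strain Kobe-6. After 18 h at 37 °C, IC scored from turbidity and reported as a band (≤100, ≤10, ≤1 µg/ml).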

[7] = system: methicillin-resistant Staphylococcus aureus (MRSA) from humans; test: Antibacterial activity (IC), agar as in Example 8 (Example 19, Table 52); details: 18 h
In short: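 MRSA human isolate at 10^6 CFU/ml on Mueller-Hinton agar containing compound at 100, 10 or 1 µg/ml, grown 18 h at 37 °C. IC is the lowest tested level that inhibited growth, binned as ≤100, ≤10 or ≤1 µg/ml.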

[8] = system: Staphylococcus aureus (209-P); test: Antibacterial activity (IC), agar as in Example 8 (Example 15, Table 48); details: 18 h
In short: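 Samples in DMSO, diluted with sterile water, incorporated into Mueller-Hinton agar at 1, 10 and 100 µg/ml final. Bacteria seeded at 10^6 CFU/ml and grown 18 h at 37°C. Inhibition read as turbidity; values reported as IC ranges rather than exact MICs.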

[9] = system: Bordetella bronchiseptica (SM2-4); test: Antibacterial activity (IC), agar as in Example 8 (Example 18, Table 51); details: 18 h
Method: as §2, §3, §4
(§5) In a manner similar to that described in Example 8, antibacterial activity of the invention compound was determined. The bacterium used for the test was Bordetella bronchiseptica (S1) and Bordetella bronchiseptica (SM2-4).

[10] = system: Bordetella bronchiseptica (S1); test: as above; details: 18 h
Method: as §2, §3, §4, §5

Enterococcus from fish = test: Antibacterial activity (IC), agar as in Example 8, media with 1.5% NaCl, 25°C (Example 20, Tables 53-55); details: for MIC: Enterococcus Seriolicida SE94-002
In short: (§6)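 Growth inhibition was scored by turbidity after culture at 25°C, with IC bands set from 2-fold-dilution MIC-equivalents. Samples were tested at final 100, 10 and 1 µg/ml in Mueller-Hinton agar with 1.5% NaCl, seeded with 10^6 CFU/ml of the fish isolates.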

Pasteurella from fish = test: as above; details: for MIC: Pasteurella piscicida KP94-02
In short: as §6

[11] = system: Streptococcus aureus (TI-1); test: Antibacterial activity (IC), agar as in Example 8 (Example 16, Table 49); details: 18 h
In short: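 Compound at final 100, 10 or 1 µg/ml in Mueller-Hinton agar, inoculated with […] aureus (TI-1) at 10^6 CFU/ml and cultured 37°C for 18 h. Inhibition read from medium turbidity; IC given as 100-10, 10-1 or ≤1 µg/ml ranges from 2-fold dilution.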

[12] = Enterococcus Seriolicida KG86050
[13] = Enterococcus Seriolicida MS89060
[14] = Enterococcus Seriolicida MS89064
[15] = Enterococcus Seriolicida MS89066
[16] = Enterococcus Seriolicida MS89068
[17] = Enterococcus Seriolicida SE94-001
[18] = Enterococcus Seriolicida SE94-003
[19] = Enterococcus Seriolicida SE94-004
[20] = Enterococcus Seriolicida SE94-005

MIC [1]	MIC ([2]; MRSA strain 891179, 37°C)	MIC ([2]; MRSA strain 891185, 37°C)	MIC ([2]; MRSA strain 891187, 37°C)	MIC ([2]; MRSA strain 891192, 37°C)	MIC ([2]; MRSA strain 900048, 37°C)	MIC ([2]; MRSA strain 900056, 37°C)	MIC [3]	MIC [4]	MIC [5]	SMILES	MIC [6]	MIC ([7]; MRSA strain 891179)	MIC ([7]; MRSA strain 891185)	MIC ([7]; MRSA strain 891187)	MIC ([7]; MRSA strain 891192)	MIC ([7]; MRSA strain 900048)	MIC ([7]; MRSA strain 900056)	MIC [8]	MIC [9]	MIC [10]	further results
10 to 100 µg/mL (≈ 18.4 to 184 µM)	1 to 10 µg/mL (≈ 1.84 to 18.4 µM)	1 to 10 µg/mL (≈ 1.84 to 18.4 µM)	≤ 1 µg/mL	1 to 10 µg/mL (≈ 1.84 to 18.4 µM)	≤ 1 µg/mL	≤ 1 µg/mL	10 to 100 µg/mL (≈ 18.4 to 184 µM)	1 to 10 µg/mL (≈ 1.84 to 18.4 µM)	≤ 1 µg/mL	Cc1cc(Oc2ccc(C(F)(F)F)cc2Cl)ccc1OC(C)C(=O)C(C#N)c1ccc(Cl)c(Cl)c1 (stereo not drawn) [compound 46]											
10 to 100 µg/mL (≈ 18.1 to 181 µM)	1 to 10 µg/mL (≈ 1.81 to 18.1 µM)	1 to 10 µg/mL (≈ 1.81 to 18.1 µM)	1 to 10 µg/mL (≈ 1.81 to 18.1 µM)	1 to 10 µg/mL (≈ 1.81 to 18.1 µM)	1 to 10 µg/mL (≈ 1.81 to 18.1 µM)	1 to 10 µg/mL (≈ 1.81 to 18.1 µM)	10 to 100 µg/mL (≈ 18.1 to 181 µM)	1 to 10 µg/mL (≈ 1.81 to 18.1 µM)	≤ 1 µg/mL	Cc1cc(Oc2ccc(C(F)(F)F)cc2Cl)ccc1OC(C)C(=O)C(C#N)c1cccc(Br)c1 (stereo not drawn) [compound 47]											
										CC(Oc1cc(Cl)cc(Oc2ccc(C(F)(F)F)cc2Cl)c1)C(=O)C(C#N)c1ccc(Cl)c(Cl)c1 (stereo not drawn) [compound 212]	1 to 10 µg/mL (≈ 1.78 to 17.8 µM)	≤ 1 µg/mL	≤ 1 µg/mL	≤ 1 µg/mL	≤ 1 µg/mL	≤ 1 µg/mL	≤ 1 µg/mL	≤ 1 µg/mL	10 to 100 µg/mL (≈ 17.8 to 178 µM)	10 to 100 µg/mL (≈ 17.8 to 178 µM)	IC (Enterococcus from fish; Enterococcus Seriolicida HI): ≤ 1 µg/mL; IC (Enterococcus from fish; [12]): ≤ 1 µg/mL; IC (Enterococcus from fish; [13]): ≤ 1 µg/mL; IC (Enterococcus from fish; [14]): ≤ 1 µg/mL; IC (Enterococcus from fish; [15]): ≤ 1 µg/mL; IC (Enterococcus from fish; [16]): ≤ 1 µg/mL; IC (Enterococcus from fish; [17]): ≤ 1 µg/mL; MIC (Enterococcus from fish): ≤ 1 µg/mL; IC (Enterococcus from fish; [18]): ≤ 1 µg/mL; IC (Enterococcus from fish; [19]): ≤ 1 µg/mL; IC (Enterococcus from fish; [20]): ≤ 1 µg/mL; MIC (Pasteurella from fish): 1 to 10 µg/mL (≈ 1.78 to 17.8 µM); IC (Pasteurella from fish; Pasteurella piscicida KP94-04): ≤10 (10-1 µg/ml); IC (Pasteurella from fish; Pasteurella piscicida KP94-05): ≤10 (10-1 µg/ml); IC (Pasteurella from fish; Pasteurella piscicida KP94-06): ≤10 (10-1 µg/ml); MIC [11]: ≤ 1 µg/mL
										CC(Oc1cc(Cl)cc(Oc2ccc(C(F)(F)F)cc2Cl)c1)C(=O)C(C#N)c1cccc(Br)c1 (stereo not drawn) [compound 213]	1 to 10 µg/mL (≈ 1.74 to 17.4 µM)	1 to 10 µg/mL (≈ 1.74 to 17.4 µM)	≤ 1 µg/mL	≤ 1 µg/mL	≤ 1 µg/mL	1 to 10 µg/mL (≈ 1.74 to 17.4 µM)	1 to 10 µg/mL (≈ 1.74 to 17.4 µM)	1 to 10 µg/mL (≈ 1.74 to 17.4 µM)	10 to 100 µg/mL (≈ 17.4 to 174 µM)	10 to 100 µg/mL (≈ 17.4 to 174 µM)	IC (Enterococcus from fish; Enterococcus Seriolicida HI): ≤ 1 µg/mL; IC (Enterococcus from fish; [12]): ≤ 1 µg/mL; IC (Enterococcus from fish; [13]): ≤ 1 µg/mL; IC (Enterococcus from fish; [14]): ≤ 1 µg/mL; IC (Enterococcus from fish; [15]): ≤ 1 µg/mL; IC (Enterococcus from fish; [16]): ≤ 1 µg/mL; IC (Enterococcus from fish; [17]): ≤ 1 µg/mL; MIC (Enterococcus from fish): ≤ 1 µg/mL; IC (Enterococcus from fish; [18]): ≤ 1 µg/mL; IC (Enterococcus from fish; [19]): ≤ 1 µg/mL; IC (Enterococcus from fish; [20]): ≤ 1 µg/mL; MIC (Pasteurella from fish): 1 to 10 µg/mL (≈ 1.74 to 17.4 µM); IC (Pasteurella from fish; Pasteurella piscicida KP94-04): ≤10 (10-1 µg/ml); IC (Pasteurella from fish; Pasteurella piscicida KP94-05): ≤10 (10-1 µg/ml); IC (Pasteurella from fish; Pasteurella piscicida KP94-06): ≤10 (10-1 µg/ml); MIC [11]: 1 to 10 µg/mL (≈ 1.74 to 17.4 µM)
